The term Ki denotes a dissociation constant, usually derived from enzyme kinetics or from competition with a known ligand.

Bridge positions count the residues as written; N and C are the ends. Ends that are not written are not given here. Peptide text beside a SMILES is read from it.

We go through eight molecules from patent publication US9994623B2, “Entomotoxic polypeptides” (INSTITUT NATIONAL DE LA RECHERCHE AGRONOMIQUE, priority 2013, dated 2018).

The target in experiment [1] is PA1b-binding site. Kind of experiment: Affinity for the PA1b-binding site, ligand binding assay with 125I-labeled toxin. The settings on record: ligand binding with toxin labeled with iodine 125I; dash = no binding in the range of concentrations tested. The protocol: The affinity for the PA1b-binding site was determined by means of ligand binding assays using a toxin labeled with iodine ^125I, as previously described (Gressent et al., Eur J Biochem, 270, 2429-35, 2003).

Experiment [2] deals with Spodoptera frugiperda Sf9 cells. Kind of experiment: Entomotoxicity (LC50) on cultured Sf9 cells, Celltiter-Blue viability test. It counts as cell-based. The settings on record: for toxicity / entomotoxic properties (in words): Sf9 cells, compared with reference PA1b. The protocol: The entomototoxic properties were determined by evaluation of the LC50 (50% lethal concentration) on cultures of Spodoptera frugiperda Sf9 cells, as described by Rahioui et al. (Biochimie, 89, 1539-43, 2007). The cells were cultured at 27° C. in medium from Lonza supplemented with 5% fetal calf serum (FCS) and 0.1% gentamicin, then seeded into 96-well plates, 24 h before the experiments (15,000 cells/wells) and exposed to increasing concentrations of synthetic peptide. After 24 h, the cell viability was determined using the Celltiter-Blue viability test (Promega), in accordance with the manufacturer's instructions. After the addition of the dye, the cells were incubated at 27° C. for 4 h. The absorbance was then measured at 570 and 600 nm using a microplate reader (MR 7000, Dynatech Laboratories Inc., USA).

The molecule “EFCSSVGSFCSPFNTNPCGYLGNCRCVPYYLYGGTCENPFG (disulfide 3-24, 10-26, 18-36 (inferred)) [EG41]” registered a Ki in experiment [1] of 72.8 ± 2.7 nM. For the same molecule, the “toxicity / entomotoxic properties (in words)” value in experiment [2] is “toxicity comparable to that of the reference PA1b peptide”.

Consider `CC[C@H](C)[C@@H]1NC(=O)[C@H](Cc2ccccc2)NC(=O)[C@@H]2CSSC[C@@H]3NC(=O)[C@H](C)NC(=O)[C@H](CCC(=O)O)NC(=O)CNC(=O)[C@@H](NC(=O)[C@H](CCCCN)NC(=O)[C@H](C)N)CSSC[C@H](NC(=O)CNC(=O)[C@H](CC(=O)O)NC(=O)CNC(=O)[C@H](C)NC(=O)[C@H](CC(N)=O)NC(=O)[C@H](CSSC[C@@H](C(=O)N[C@@H](C)C(=O)N[C@@H](CCC(N)=O)C(=O)N[C@@H](CC(C)C)C(=O)N[C@@H](CO)C(=O)N[C@H](C(=O)O)[C@@H](C)O)NC(=O)[C@H](Cc4ccccc4)NC(=O)CNC(=O)[C@@H]4CCCN4C(=O)[C@H](CC(C)C)NC(=O)[C@H]([C@@H](C)O)NC(=O)[C@H](CC(C)C)NC(=O)[C@H](Cc4ccc(O)cc4)NC(=O)[C@H](C)NC(=O)[C@H](CC(=O)O)NC(=O)[C@H]([C@@H](C)O)NC1=O)NC(=O)[C@H](Cc1ccccc1)NC(=O)[C@H](CC(N)=O)NC(=O)[C@H](Cc1ccccc1)NC(=O)[C@H](CCC(N)=O)NC(=O)[C@H]([C@@H](C)O)NC(=O)[C@H](CC(=O)O)NC3=O)C(=O)N[C@@H](CCCNC(=N)N)C(=O)N2` [AS40] (H-AKCGEACDTQFNFCNAGDGCRCFITDAYLTLPGFCAQLST-OH; disulfide 3-20, 7-22, 14-35 (inferred); N-terminus and C-terminus assumed), for which, in experiment [1], the Ki was determined as 10.3 ± 2 nM. In addition, in experiment [2], the “toxicity / entomotoxic properties (in words)” value is “toxicity comparable to that of the reference PA1b peptide”.

For “GQCARVGMRCSRALPNPCGDIVTCRCVHLHLVGSTCIDYTGDGL [GL44]”, the “toxicity / entomotoxic properties (in words)” value in experiment [2] is recorded as “do not have entomotoxic properties”.

As to “DECWGPCSVLQTPPCPLSKCYCIPLFLVVGYCSHASS [DS37]”, the affinity in experiment [1] corresponds to a Ki of 694 ± 2 nM. For the same molecule, the “toxicity / entomotoxic properties (in words)” value in experiment [2] is given as “do not have entomotoxic properties”.

Consider `CC[C@H](C)[C@@H]1NC(=O)CNC(=O)[C@H](CO)NC(=O)[C@@H](NC(=O)[C@H](CC(=O)O)NC(=O)[C@H](C)N)CSSC[C@@H]2NC(=O)[C@H](CC(=O)O)NC(=O)[C@H](CO)NC(=O)[C@H](CO)NC(=O)[C@H](CCCNC(=N)N)NC(=O)[C@@H]3CSSC[C@@H](C(=O)N[C@H](C(=O)N[C@@H](CC(N)=O)C(=O)N4CCC[C@H]4C(=O)N[C@H](C(=O)N[C@@H](CO)C(=O)O)[C@@H](C)CC)[C@@H](C)CC)NC(=O)[C@H](Cc4ccccc4)NC(=O)CNC(=O)CNC(=O)[C@H]([C@@H](C)CC)NC(=O)[C@H](CC(C)C)NC(=O)[C@H](C)NC(=O)[C@H]([C@@H](C)CC)NC(=O)[C@@H]4CCCN4C(=O)[C@H]([C@@H](C)CC)NC(=O)[C@H](CSSC[C@H](NC1=O)C(=O)N[C@@H](CO)C(=O)N1CCC[C@H]1C(=O)N[C@@H](Cc1ccccc1)C(=O)N[C@@H](CCC(=O)O)C(=O)N[C@@H](CCSC)C(=O)N1CCC[C@H]1C(=O)N1CCC[C@H]1C(=O)N3)NC(=O)[C@H](CCCNC(=N)N)NC2=O` [AS37] (H-ADCSGICSPFEMPPCRSSDCRCIPIALIGGFCINPIS-OH; disulfide 3-20, 7-22, 15-32 (inferred); N-terminus and C-terminus assumed), for which, in experiment [1], the affinity, expressed as Ki, was 15 ± 2 nM. For the same molecule, the “toxicity / entomotoxic properties (in words)” value in experiment [2] is “toxicity comparable to that of the reference PA1b peptide”.

For the molecule `CC[C@H](C)[C@@H]1NC(=O)[C@H](C(C)C)NC(=O)[C@H](CC(C)C)NC(=O)CNC(=O)[C@H](C(C)C)NC(=O)[C@@H]2CCCN2C(=O)[C@H]([C@@H](C)CC)NC(=O)[C@@H]2CSSC[C@@H]3NC(=O)[C@H](C(C)C)NC(=O)CNC(=O)[C@H](CC(N)=O)NC(=O)[C@@H](NC(=O)[C@H](CO)NC(=O)[C@H](C)N)CSSC[C@H](NC(=O)[C@H](C)NC(=O)[C@H](CO)NC(=O)[C@H]([C@@H](C)O)NC(=O)CNC(=O)[C@H](CSSC[C@@H](C(=O)N[C@@H](CCCNC(=N)N)C(=O)N[C@@H](CC(N)=O)C(=O)N4CCC[C@H]4C(=O)N[C@@H](CO)C(=O)NCC(=O)O)NC(=O)[C@H](Cc4ccc(O)cc4)NC(=O)CNC1=O)NC(=O)[C@@H]1CCCN1C(=O)[C@@H]1CCCN1C(=O)[C@H](CCSC)NC(=O)[C@H](CCC(=O)O)NC(=O)[C@H](Cc1ccccc1)NC(=O)[C@@H]1CCCN1C(=O)[C@H](CO)NC3=O)C(=O)N[C@@H](CCCNC(=N)N)C(=O)N2` [PA1b, reference compound] (H-ASCNGVCSPFEMPPCGTSACRCIPVGLVIGYCRNPSG-OH; disulfide 3-20, 7-22, 15-32 (inferred); N-terminus and C-terminus assumed), in experiment [1], the affinity, expressed as Ki, was 17 ± 1.1 nM.

Regarding “ASCPNVGAVCSPFETKPCGNVKDCRCLPWGLFFGTCINPTG (disulfide 3-24, 10-26, 18-36) [AG41]”, the inhibition constant Ki in experiment [1] worked out at 1.3 ± 0.6 nM. In experiment [2] (fold versus pea PA1b), the “toxicity relative to PA1b” value is listed as “close to ten times higher than that of PA1b”.

Take “QSCIGFCSVFDSKPLCGSSRCRCNKPLNNPFVGICERRPST [QT41]”: the “toxicity / entomotoxic properties (in words)” value in experiment [2] is reported as “do not have entomotoxic properties”.
